What was measured:
Conditions in all cases: exposure time: 72 h
E31 [1] = patient-derived glioblastoma stem cells of proneural subtype; experiment: phenotypic distance (Euclidean, principal components) from DMSO controls (arbitrary units); higher = stronger morphological change
E57 [2] = patient-derived glioblastoma stem cells of mesenchymal subtype; experiment: as above
E21 [3] = patient-derived glioblastoma stem cells of mesenchymal subtype; experiment: as above
E34 [4] = patient-derived glioblastoma stem cells of proneural subtype; experiment: as above
E28 [5] = patient-derived glioblastoma stem cells of classical subtype; experiment: as above
E13 [6] = patient-derived glioblastoma stem cells of classical subtype; experiment: as above
FT3469 [7] = normal neural stem cell line; experiment: as above
E31 [8] = experiment: surviving fraction (nuclei count normalised to DMSO); higher = more cells surviving (less toxic)
E57 [9] = experiment: as above
E21 [10] = experiment: as above
E34 [11] = experiment: as above
E28 [12] = experiment: as above
E13 [13] = experiment: as above
FT3469 [14] = experiment: as above
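Throughout, for phenotypic distance (Euclidean, principal components) from DMSO controls: cell Painting imaging in 384-well plates, CellProfiler features reduced to at least 20 principal components, Euclidean distance versus same-plate DMSO vehicle wells (0.1% v/v), median over six images per well.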
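Throughout, for surviving fraction (nuclei count normalised to DMSO): nuclei counted by high-content imaging of Hoechst-stained cells in laminin-coated 384-well plates, relative to 0.1% DMSO vehicle wells, with staurosporine as cell-death control.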

C[C@H]1O[C@@H](O[C@H]2[C@@H](O)C[C@H](O[C@H]3[C@@H](O)C[C@H](O[C@H]4CC[C@@]5(C)[C@H](CC[C@@H]6[C@@H]5C[C@@H](O)[C@]5(C)[C@@H](C7=CC(=O)OC7)CC[C@]65O)C4)O[C@@H]3C)O[C@@H]2C)C[C@H](O)[C@@H]1O [Digoxin]
Conditions | phenotypic distance | surviving fraction
E13 [6], 4.1 nM | 2.96 | –
E13 [6], 12.3 nM | 3.64 | –
E13 [6], 37 nM | 5.02 | –
E13 [6], 111.1 nM | 5.57 | –
E13 [6], 333.3 nM | 6.42 | –
E13 [6], 1000 nM | 6.06 | –
E13 [6], 3000 nM | 6.15 | –
E13 [13], 4.1 nM | – | 0.795
E13 [13], 12.3 nM | – | 0.448
E13 [13], 37 nM | – | 0.349
E13 [13], 111.1 nM | – | 0.348
E13 [13], 333.3 nM | – | 0.272
E13 [13], 1000 nM | – | 0.306
E13 [13], 3000 nM | – | 0.266
E21 [3], 4.1 nM | 2.11 | –
E21 [3], 12.3 nM | 3.25 | –
E21 [3], 37 nM | 3.77 | –
E21 [3], 111.1 nM | 6.27 | –
E21 [3], 333.3 nM | 6.66 | –
E21 [3], 1000 nM | 5.99 | –
E21 [3], 3000 nM | 6.15 | –
E21 [10], 4.1 nM | – | 0.854
E21 [10], 12.3 nM | – | 0.676
E21 [10], 37 nM | – | 0.497
E21 [10], 111.1 nM | – | 0.368
E21 [10], 333.3 nM | – | 0.269
E21 [10], 1000 nM | – | 0.266
E21 [10], 3000 nM | – | 0.218
E28 [5], 4.1 nM | 1 | –
E28 [5], 12.3 nM | 1.47 | –
E28 [5], 37 nM | 2.1 | –
E28 [5], 111.1 nM | 2.57 | –
E28 [5], 333.3 nM | 2.97 | –
E28 [5], 1000 nM | 3.74 | –
E28 [5], 3000 nM | 2.92 | –
E28 [12], 4.1 nM | – | 0.839
E28 [12], 12.3 nM | – | 0.85
E28 [12], 37 nM | – | 0.696
E28 [12], 111.1 nM | – | 0.628
E28 [12], 333.3 nM | – | 0.491
E28 [12], 1000 nM | – | 0.452
E28 [12], 3000 nM | – | 0.332
E31 [1], 4.1 nM | 2.21 | –
E31 [1], 12.3 nM | 3.02 | –
E31 [1], 37 nM | 4.38 | –
E31 [1], 111.1 nM | 5.51 | –
E31 [1], 333.3 nM | 5.08 | –
E31 [1], 1000 nM | 4.94 | –
E31 [1], 3000 nM | 4.77 | –
E31 [8], 4.1 nM | – | 0.87
E31 [8], 12.3 nM | – | 0.721
E31 [8], 37 nM | – | 0.47
E31 [8], 111.1 nM | – | 0.403
E31 [8], 333.3 nM | – | 0.36
E31 [8], 1000 nM | – | 0.356
E31 [8], 3000 nM | – | 0.252
E34 [4], 4.1 nM | 1.18 | –
E34 [4], 12.3 nM | 3.09 | –
E34 [4], 37 nM | 4.76 | –
E34 [4], 111.1 nM | 5.12 | –
E34 [4], 333.3 nM | 3.77 | –
E34 [4], 1000 nM | 3.7 | –
E34 [4], 3000 nM | 5.72 | –
E34 [11], 4.1 nM | – | 0.979
E34 [11], 12.3 nM | – | 0.745
E34 [11], 37 nM | – | 0.632
E34 [11], 111.1 nM | – | 0.539
E34 [11], 333.3 nM | – | 0.466
E34 [11], 1000 nM | – | 0.394
E34 [11], 3000 nM | – | 0.293
E57 [2], 4.1 nM | 1.42 | –
E57 [2], 12.3 nM | 3.76 | –
E57 [2], 37 nM | 5.52 | –
E57 [2], 111.1 nM | 5.37 | –
E57 [2], 333.3 nM | 6.22 | –
E57 [2], 1000 nM | 6.34 | –
E57 [2], 3000 nM | 6.45 | –
E57 [9], 4.1 nM | – | 1
E57 [9], 12.3 nM | – | 0.74
E57 [9], 37 nM | – | 0.392
E57 [9], 111.1 nM | – | 0.27
E57 [9], 333.3 nM | – | 0.207
E57 [9], 1000 nM | – | 0.166
E57 [9], 3000 nM | – | 0.112
FT3469 [7], 4.1 nM | 2.61 | –
FT3469 [7], 12.3 nM | 3.2 | –
FT3469 [7], 37 nM | 4.1 | –
FT3469 [7], 111.1 nM | 3.74 | –
FT3469 [7], 333.3 nM | 3.18 | –
FT3469 [7], 1000 nM | 4.16 | –
FT3469 [7], 3000 nM | 3.8 | –
FT3469 [14], 4.1 nM | – | 0.79
FT3469 [14], 12.3 nM | – | 0.652
FT3469 [14], 37 nM | – | 0.628
FT3469 [14], 111.1 nM | – | 0.686
FT3469 [14], 333.3 nM | – | 0.684
FT3469 [14], 1000 nM | – | 0.577
FT3469 [14], 3000 nM | – | 0.566

CCCCC1C(=O)N(c2ccccc2)N(c2ccc(O)cc2)C1=O (stereo unspecified) [Oxyphenbutazone]
Conditions | phenotypic distance | surviving fraction
E13 [6], 4.1 nM | 0.562 | –
E13 [6], 12.3 nM | 0.782 | –
E13 [6], 37 nM | 0.706 | –
E13 [6], 111.1 nM | 0.835 | –
E13 [6], 333.3 nM | 1.34 | –
E13 [6], 1000 nM | 0.708 | –
E13 [6], 3000 nM | 0.404 | –
E13 [13], 4.1 nM | – | 1.06
E13 [13], 12.3 nM | – | 1.12
E13 [13], 37 nM | – | 0.991
E13 [13], 111.1 nM | – | 1.1
E13 [13], 333.3 nM | – | 1.11
E13 [13], 1000 nM | – | 1.04
E13 [13], 3000 nM | – | 0.978
E21 [3], 4.1 nM | 0.965 | –
E21 [3], 12.3 nM | 0.677 | –
E21 [3], 37 nM | 0.635 | –
E21 [3], 111.1 nM | 0.699 | –
E21 [3], 333.3 nM | 0.588 | –
E21 [3], 1000 nM | 0.698 | –
E21 [3], 3000 nM | 0.735 | –
E21 [10], 4.1 nM | – | 1.04
E21 [10], 12.3 nM | – | 1.09
E21 [10], 37 nM | – | 0.947
E21 [10], 111.1 nM | – | 1.05
E21 [10], 333.3 nM | – | 0.957
E21 [10], 1000 nM | – | 1.05
E21 [10], 3000 nM | – | 1.1
E28 [5], 4.1 nM | 0.723 | –
E28 [5], 12.3 nM | 0.56 | –
E28 [5], 37 nM | 0.689 | –
E28 [5], 111.1 nM | 0.5 | –
E28 [5], 333.3 nM | 0.608 | –
E28 [5], 1000 nM | 0.532 | –
E28 [5], 3000 nM | 0.618 | –
E28 [12], 4.1 nM | – | 1.06
E28 [12], 12.3 nM | – | 1.05
E28 [12], 37 nM | – | 1.06
E28 [12], 111.1 nM | – | 1.06
E28 [12], 333.3 nM | – | 0.96
E28 [12], 1000 nM | – | 1.02
E28 [12], 3000 nM | – | 1.07
E31 [1], 4.1 nM | 0.939 | –
E31 [1], 12.3 nM | 1.97 | –
E31 [1], 37 nM | 0.848 | –
E31 [1], 111.1 nM | 0.364 | –
E31 [1], 333.3 nM | 0.728 | –
E31 [1], 1000 nM | 0.522 | –
E31 [1], 3000 nM | 0.632 | –
E31 [8], 4.1 nM | – | 0.93
E31 [8], 12.3 nM | – | 0.906
E31 [8], 37 nM | – | 0.918
E31 [8], 111.1 nM | – | 1.01
E31 [8], 333.3 nM | – | 0.939
E31 [8], 1000 nM | – | 1.07
E31 [8], 3000 nM | – | 0.941
E34 [4], 4.1 nM | 0.618 | –
E34 [4], 12.3 nM | 0.62 | –
E34 [4], 37 nM | 0.522 | –
E34 [4], 111.1 nM | 0.833 | –
E34 [4], 333.3 nM | 0.434 | –
E34 [4], 1000 nM | 1.17 | –
E34 [4], 3000 nM | 0.608 | –
E34 [11], 4.1 nM | – | 0.971
E34 [11], 12.3 nM | – | 1.07
E34 [11], 37 nM | – | 0.978
E34 [11], 111.1 nM | – | 1.07
E34 [11], 333.3 nM | – | 1.04
E34 [11], 1000 nM | – | 1.11
E34 [11], 3000 nM | – | 1.01
E57 [2], 4.1 nM | 0.925 | –
E57 [2], 12.3 nM | 0.967 | –
E57 [2], 37 nM | 0.794 | –
E57 [2], 111.1 nM | 0.629 | –
E57 [2], 333.3 nM | 0.441 | –
E57 [2], 1000 nM | 0.546 | –
E57 [2], 3000 nM | 0.652 | –
E57 [9], 4.1 nM | – | 1.04
E57 [9], 12.3 nM | – | 1.02
E57 [9], 37 nM | – | 0.983
E57 [9], 111.1 nM | – | 0.979
E57 [9], 333.3 nM | – | 1.06
E57 [9], 1000 nM | – | 0.965
E57 [9], 3000 nM | – | 0.938
FT3469 [7], 4.1 nM | 0.918 | –
FT3469 [7], 12.3 nM | 0.982 | –
FT3469 [7], 37 nM | 0.908 | –
FT3469 [7], 111.1 nM | 0.496 | –
FT3469 [7], 333.3 nM | 0.356 | –
FT3469 [7], 1000 nM | 0.51 | –
FT3469 [7], 3000 nM | 0.472 | –
FT3469 [14], 4.1 nM | – | 0.985
FT3469 [14], 12.3 nM | – | 0.955
FT3469 [14], 37 nM | – | 0.951
FT3469 [14], 111.1 nM | – | 1.13
FT3469 [14], 333.3 nM | – | 1.03
FT3469 [14], 1000 nM | – | 0.989
FT3469 [14], 3000 nM | – | 1.08
